Legend:
Assay in all cases: Antifungal growth assay in potato dextrose broth, 24-well
Assay type in all cases: cell-based
Monilinia sp. = conditions: 2x assays
Description: (§1) Fungi to be tested were propagated on potato dextrose agar (PDA) plates at room temperature. Stock solutions of pseudomycins and depsipeptide were suspended in dimethylsulfoxide (DMSO) (Sigma) at 5 mg/ml and stored at −20C. Serial dilutions of compounds were done the day of the experiment. All serial dilutions were made in DMSO. […] These are noted in the raw data section.
(§2) Assays were performed in 24-well cell culture clusters (Costar 3524), with 990 ul potato dextrose broth (PDB, Difco) and 10 ul of the compound to be tested in each well. Initial concentrations tested were 50-1.56 ug/ml (final concentration of pseudomycin). Actual concentrations of pseudomycins tested were 50, 25, 12.5, 6.25, 3.12 and 1.56 ug/ml. Each well was inoculated with the appropriate fungus. Unless noted, the fungal inoculum consisted of an ˜4 mm^2 piece of PDA with fungal mycelium. The exceptions were as follows. Ustilago maydis: this fungus grows much like a yeast on PDA, and cells were scraped from the PDA stock plate, resuspended in PDB and 10 ul inoculum added to each well. Monilinia sp.: this fungal mycelium grows as a very loose sheet on top of PDA and would not adhere to agar blocks. Fungal mycelium was ground with a metal rod in 500 ul PDB and 10 ul inoculum was added to each well. Mycosphaeella fijiensis, Septoria passerinii, Septoria triticii: these fungi all grow very slowly and the results were difficult to score if a small piece of agar with fungal mycelium on it was used as an inoculum. For these fungi, the mycelium was ground with a metal rod in 500 ul PDB and 10 ul inoculum was added to each well.
(§3) Wells were scored for fungal growth at two days and five days. Some slow growing fungi were scored at later days for growth because assessment was not possible at two or five days. Growth was scored by comparison to a control consisting of fungus inoculated into 990 ul potato dextrose broth and 10 ul of DMSO (Dimethylsulfoxide). An additional control consisting of fungal inoculum in PDB only was performed to ensure that the DMSO was not inhibitory to fungal growth.
(§4) For assays that were repeated, new stock solutions were made from a second shipment of pseudomycins. Note that pseudomycin B′ and depsipeptide stock solutions were remade from first shipment materials because these were not included in the second shipment. […] Actual concentrations of pseudomycins tested were 2, 1, 0.5, 0.25, 0.125 and 0.0625 ug/ml. A-PO4 and A-FB=pseudomycin A phosphate salt and free base respectively.
(§5) Table 2: Two day results—concentration indicated is lowest level of compound (ug /ml) that results is no growth. NI, no inhibition; p (partial), at least 50% inhibited; -, not determined. If number of assays was greater than one, number of assays performed on the fungus is noted in parentheses. For several slow-growing fungi, days elapsed before observation (if different than two) are noted.
(§6) Table 3: Five day results—concentration indicated is lowest level of compound (ug /ml) that results in no growth. NI, no inhibition; p (partial), at least 50% inhibited; -, not performed on the fungus is noted in parentheses. For several slow-growing fungi, days elapsed before observation (if different than five) are noted.

Septoria passerinii = conditions: 3x assays
Description: as §1, §2, §3, §4, §5, §6

[1] = tested on: Mycosphaeella fijiensis (8088/88); conditions: 3x assays
Description: as §1, §2, §3, §4, §5, §6

[2] = tested on: Mycosphaeella fijiensis (Sigatoka); conditions: 3x assays
Description: as §1, §2, §3, §4, §5, §6

Penicillium roqueforti = conditions: 3x assays
Description: as §1, §2, §3, §4, §5, §6

Ustilago maydis = conditions: 3x assays
Description: as §1, §2, §3, §4, §5, §6

Geotrichim candidum = conditions: 3x assays
Description: as §1, §2, §3, §4, §5, §6

Septoria tritici = conditions: 3x assays
Description: as §1, §2, §3, §4, §5, §6

Drechslera portulacae = conditions: 3x assays
Description: as §1, §2, §3, §4, §5, §6

Rhizoctonia solani = conditions: 2x assays
Description: as §1, §2, §3, §4, §5, §6

Phytophthora cinnemani = tested on: Phytophthora cinnemani; design: key: NI, no inhibition; p (partial), at least 50% inhibited
Description: as §1, §2, §3, §4, §5, §6

Diplodia natalensis = tested on: Diplodia natalensis; design: key: NI, no inhibition; p (partial), at least 50% inhibited
Description: as §1, §2, §3, §4, §5, §6

Phoma chrysamthecola = tested on: Phoma chrysamthecola; design: key: NI, no inhibition; p (partial), at least 50% inhibited; conditions: five day results
Description: as §1, §2, §3, §4, §5, §6

Tapesia acuformis = tested on: Tapesia acuformis; design: key: NI, no inhibition; p (partial), at least 50% inhibited; conditions: 2x assays
Description: as §1, §2, §3, §4, §5, §6

Fusarium solani = tested on: Fusarium solani; design: key: NI, no inhibition; p (partial), at least 50% inhibited
Description: as §1, §2, §3, §4, §5, §6

Stagonospora nodorum = tested on: Stagonospora nodorum; design: key: NI, no inhibition; p (partial), at least 50% inhibited
Description: as §1, §2, §3, §4, §5, §6

Drechslera teres = tested on: Drechslera teres; design: key: NI, no inhibition; p (partial), at least 50% inhibited
Description: as §1, §2, §3, §4, §5, §6

Aphanomyces sp. = tested on: Aphanomyces sp.; design: key: NI, no inhibition; p (partial), at least 50% inhibited; conditions: 2x assays
Description: as §1, §2, §3, §4, §5, §6

Alternaria helianthi = tested on: Alternaria helianthi; design: key: NI, no inhibition; p (partial), at least 50% inhibited; conditions: 2x assays
Description: as §1, §2, §3, §4, §5, §6

Phytophthora ultimum = tested on: Phytophthora ultimum; design: key: NI, no inhibition; p (partial), at least 50% inhibited
Description: as §1, §2, §3, §4, §5, §6

[3] = tested on: Fusarium oxysporum cubense; design: key: NI, no inhibition; p (partial), at least 50% inhibited
Description: as §1, §2, §3, §4, §5, §6

[4] = Table 2 (two day results), observed at 7 day
[5] = Table 3 (five day results), observed at 21 days

pseudomycin A-PO4
lowest level of compound that results in no growth (Monilinia sp.; five day results): 12.5 µg/mL | lowest level of compound that results in no growth (Monilinia sp.; two day results): 12.5 µg/mL | lowest level of compound that results in no growth (Septoria passerinii; five day results): 0.12 µg/mL | lowest level of compound that results in no growth (Septoria passerinii; two day results): 0.125 µg/mL | lowest level of compound that results in no growth [1, 4]: 0.12 µg/mL | lowest level of compound that results in no growth [1, 5]: 0.25 µg/mL | lowest level of compound that results in no growth [2, 4]: 1 µg/mL | lowest level of compound that results in no growth [2, 5]: 1 µg/mL | lowest level of compound that results in no growth (Penicillium roqueforti; five day results): 3.12 µg/mL | lowest level of compound that results in no growth (Penicillium roqueforti; two day results): 0.5 µg/mL | lowest level of compound that results in no growth (Ustilago maydis; five day results): 1 µg/mL | lowest level of compound that results in no growth (Ustilago maydis; two day results): 0.5 µg/mL | lowest level of compound that results in no growth (Geotrichim candidum; five day results): 6.25 µg/mL | lowest level of compound that results in no growth (Geotrichim candidum; two day results): 12.5 µg/mL | lowest level of compound that results in no growth (Septoria tritici; five day results): 0.25 µg/mL | lowest level of compound that results in no growth (Septoria tritici; two day results): 0.25 µg/mL | lowest level of compound that results in no growth (Drechslera portulacae; Table 3 (five day results), observed at 9 day, listed as A-PO4): 0.06 µg/mL | lowest level of compound that results in no growth (Drechslera portulacae; Table 3 (five day results), observed at 9 day, listed as pseudomycin A (PO4)): 0.0625 µg/mL | lowest level of compound that results in no growth (Drechslera portulacae; two day results): 0.06 µg/mL | lowest level of compound that results in no growth (Rhizoctonia solani; five day results): 12.5 µg/mL | lowest level of compound that results in no growth (Rhizoctonia solani; two day results): 6.25 µg/mL | lowest level of compound that results in no growth (Phytophthora cinnemani; five day results): NI | lowest level of compound that results in no growth (Phytophthora cinnemani; two day results): NI | lowest level of compound that results in no growth (Diplodia natalensis; five day results): NI | lowest level of compound that results in no growth (Diplodia natalensis; two day results): NI | lowest level of compound that results in no growth (Phoma chrysamthecola): NI | lowest level of compound that results in no growth (Tapesia acuformis; five day results): 50 µg/mL | lowest level of compound that results in no growth (Tapesia acuformis; two day results): 50 µg/mL | lowest level of compound that results in no growth (Fusarium solani; five day results): NI | lowest level of compound that results in no growth (Fusarium solani; two day results): NI | lowest level of compound that results in no growth (Stagonospora nodorum; five day results): NI | lowest level of compound that results in no growth (Stagonospora nodorum; two day results): NI | lowest level of compound that results in no growth (Drechslera teres; five day results): NI | lowest level of compound that results in no growth (Drechslera teres; two day results): NI | lowest level of compound that results in no growth (Aphanomyces sp.; five day results): p at 50 | lowest level of compound that results in no growth (Aphanomyces sp.; two day results): 50 µg/mL | lowest level of compound that results in no growth (Alternaria helianthi; five day results): 25 µg/mL | lowest level of compound that results in no growth (Alternaria helianthi; two day results): 25 µg/mL | lowest level of compound that results in no growth (Phytophthora ultimum; five day results): NI | lowest level of compound that results in no growth (Phytophthora ultimum; two day results): NI | lowest level of compound that results in no growth ([3]; five day results): NI | lowest level of compound that results in no growth ([3]; two day results): NI

Reference: patent publication US7326689B2, “Pseudomycins useful against plant diseases” (Eli Lilly and Company, priority 2000, dated 2008)
